Each structure is given as a SMILES string.

Broadly, the melting point is the temperature, or range, at which the solid turns liquid. `O=C(c1ccc(Nc2ccnc3cc(C(F)(F)F)ccc23)cc1)N1CCN(c2c(Cl)c(Cl)nc(Cl)c2Cl)CC1` registered a melting point of 222 to 224 °C.
To `O=c1[nH]c2cc(Cl)cc(Cl)c2c(=O)n1Cc1ccc(I)cc1` belongs 314 to 316 °C.
The compound `Cc1cc2c(/C=C/C(=O)OCc3ccccc3)cccc2[nH]1` showed a melting point of 135 to 136 °C.
Turning to `COc1cc2c(cc1OC)CN(CCCc1ccc(NC(=O)c3cc4ccccc4cn3)cc1)CC2`, the melting point was determined as 146 °C.
`O=C(CN1CCCCC1)Nc1ccc2cc3ccc(NC(=O)CN4CCCCC4)cc3nc2c1` gave a melting point of 192 to 194 °C.
Turning to `O=c1[nH]c2ccc3c(c2n(Cc2ccccc2)c1=O)CCCN3`, the melting point was above 300 °C.
Take `Cc1cc(-n2ccc(OCCC3CC3)cc2=O)sc1C(=O)NCc1ccccc1`: the melting point lay in the range of 134 to 136 °C.
Take `Cc1cc(C)c(CS(=O)c2ccccc2)c(-c2ccc(F)c(C)c2)c1` (stereo unspecified): the melting point is 75 to 85 °C.
`COc1ccnc(Cl)c1N` yielded a melting point of 86 to 87 °C.
With `CC(C)c1ccc(S(=O)(=O)O)cc1`, the melting point fell in the range of 35.2 to 36.7 °C.
To `Nc1nc(-c2cccc3ccccc23)co1` belongs 155 to 162 °C; to `CC(C)(C)OC(=O)N1CCC(C(=O)c2nc3ccccc3[nH]2)CC1`, 226 to 228 °C.
Take `COC(=O)n1c(Br)c(Br)c(C#N)c1Br`: the melting point is 120 to 122 °C.
To `CCCCCS(=O)(=O)NC(=O)/C=C/c1cc(OC(C)C)nn1Cc1ccc(C(F)(F)F)cc1Cl` belongs 139 to 140 °C.
Compound `CS(=O)(=O)NCCNc1ccc([N+](=O)[O-])cc1` displayed a melting point of 154 °C.
For the compound `COC(=O)[C@H](Cc1ccc(NC(=O)c2c(Cl)cccc2Cl)cc1)NC(=O)OC(C)(C)C`, the melting point fell in the range of 148 to 151 °C.
As for `CC(C)Oc1ccc(Cc2nn(-c3ccccc3Cl)c(=O)o2)cc1`, the figure is 54 °C.
For `COc1ccc(NC(=O)CN2CC(C)N(C(c3ccc(F)cc3)c3ccc(F)cc3)CC2C)cc1` (stereo unspecified), the melting point came to 131 °C.
The compound `CC(C)c1cc(C(C)C)c(C(F)C(=O)c2ccc(C(C)C)c(OS(N)(=O)=O)c2C(C)C)c(C(C)C)c1` (stereo unspecified) gave a melting point of 130 to 132 °C.
`CN(C)C(=O)c1cc(C(C)(C)C)c(O)c(C(C)(C)C)c1` yielded a melting point of 173 to 174 °C.
The compound `Cc1nc(Cl)c(S(C)(=O)=O)c(Cl)n1` registered a melting point of 146 to 147 °C.
`CC1=C(c2cccc(C(F)(F)F)c2)n2ncc3c(=O)[nH]c(=S)n(c32)C1` registered a melting point of 269 to 271 °C.
The compound `COC(=O)c1cn(C2=CC(C)(C)Oc3ccc(C#N)cc32)c2ccccc12` showed a melting point of 177 to 180 °C.
To `O=C(NCc1ccn(C2=CC3=C(CC2)CCc2[nH]c(=O)c(=O)n(O)c23)c1)Nc1ccc(C(=O)O)cc1` belongs above 300 °C.
In turn, `CSc1nn2c(-n3ccnc3)cc(C)nc2c1S(=O)(=O)c1ccccc1` showed a melting point above 230 °C.
To `CCNc1ccc2nnc(-c3ncc([N+](=O)[O-])n3C)n2n1` belongs 258 to 263 °C.
To `CCn1nnnc1NCC(O)COc1cccc(CN2CCCCC2)c1` (stereo unspecified) belongs 111 to 113 °C; to `COc1nc2ccc(Cl)cc2c(-c2ccccc2Cl)c1C(=O)O`, 188 to 190 °C.
To `O=C(O)c1ccccc1CN1CCc2sccc2C1` belongs 200 to 205 °C; to `CC(=O)O[C@H]1CC[C@H](c2ccc(C#N)cc2)CC1`, 130 to 131 °C.
`Cn1c(=O)c2ncn(CCCCCC(=O)O)c2n(C)c1=O` registered a melting point of 177 °C.
Take `O=C(O)COc1ccc(SCc2ccc(OCc3ccc(F)c(C(F)(F)F)c3)cc2)c2c1CCC2`: the melting point lay within 116 to 117 °C.
Consider `COc1ccc(CC(=O)Nc2ccc3c(c2)[C@@H](OCCc2ccccc2)[C@H](O)C(C)(C)O3)cc1` (relative stereo), for which the melting point was 161 to 162 °C.
As to `CC1(C)CCCC2(C)CC(O)CCC12` (stereo unspecified), the melting point was in the range of 53 to 54 °C.
The compound `C(#Cc1ccccn1)CCN1CC=C(c2ccccc2)CC1` showed a melting point of 87.5 to 88.5 °C.
As for `CCOC(=O)C(C)Oc1ccc(-c2nc(-c3ccc(OC(C)C(=O)OCC)cc3O)nc(-c3ccc(OC(C)C(=O)OCC)cc3O)n2)c(O)c1` (stereo unspecified), the melting point was 115 to 120 °C.
The compound `CN(C)CCCN(C)C(=O)Nc1ccc(-c2nnc(CSCCOc3ccccc3)o2)cc1` showed a melting point of 136 to 139 °C.
Turning to `O=C(NCCCCCCCNC(=O)c1ccc(Oc2ccccc2)cc1)c1ccc(Oc2ccccc2)cc1`, the melting point is 164 to 165 °C.
As for `Nc1ccc(CCOC(=O)Nc2ccc(Nc3ccccc3)cc2)cc1`, the figure is 140 °C.
To `O=C(CCc1cnoc1-c1ccccc1)Nc1ccc(CP(=O)(O)O)cc1` belongs 162 to 164 °C; to `N=C(N)c1ccc(-c2ccc(-c3ccc(-c4ccc(C(=N)N)cn4)o3)o2)nc1`, above 300 °C; to `O=S(=O)(Oc1ccc2c(OS(=O)(=O)c3ccc(O)cc3)c3cc(OS(=O)(=O)c4ccc(O)cc4)ccc3cc2c1)c1ccc(O)cc1`, 192 to 194 °C.
As for `COc1cc(C(=CC#N)c2ccc(OC)c(OC)c2)ccc1N`, the figure is 104 to 106 °C.
Compound `Cn1c(CNC2CCS(=O)(=O)CC2)cc2cc(NC(=O)c3ccc(OCC4CC4)cc3)ccc21` showed a melting point of 200 to 201 °C.
`CN1CCc2c(-c3ccc(S(=O)(=O)N(C)C)cc3)cc3c(c2C1)N(C)C(=O)C3=O` gave a melting point of 232 to 240 °C.
`CC(=O)N1CCCC2(Cc3ccc(Br)cc3)C(=O)N(c3cc(Cl)nc(Cl)c3)C(=O)N12` (stereo unspecified) showed a melting point of 91 °C.
In the case of `O=C(C=Cc1ccc2c(c1)OCO2)C1C(=O)CCC1=O`, the melting point fell in the range of 181 to 182 °C.
With `CCC1(C)Cc2cc(O)c(Cl)c(Cl)c2C1=O` (stereo unspecified), the melting point lay in the range of 215 to 217 °C.
`C=CC=CC(=O)Nc1cc2c(Nc3cccc(Br)c3)ncnc2cn1` gave a melting point of 210 to 215 °C.
Take `C1=C(c2nc3ccccc3o2)CCN(Cc2ccccc2)C1`: the melting point was in the range of 129 to 130 °C.
As for `CCOc1cc(C(O)C(C)C)cc2c1OC(C)(C)C2` (stereo unspecified), the melting point was 100 to 101 °C.
Compound `COC(=O)[C@H](Cc1ccc(OS(=O)(=O)c2ccc(C)cc2)cc1)NC(=O)OC(C)(C)C` showed a melting point of 78.8 to 79.5 °C.
With `O=C1NCCc2c1c1cccc3c1n2CCO3`, the melting point lay within 298 to 300 °C.
With `Cc1ccccc1N(CC(=O)OC(C)(C)C)C(=O)CN1C(=O)c2ccccc2C1=O`, the melting point is 140 °C.
For `Cc1c(S(=O)(=O)N(O)C(=N)Nc2ccc(Cl)c(Cl)c2)sc2ccc(Cl)cc12`, the melting point lay within 232 to 233 °C.
Compound `CC(=O)OC1CSC(Oc2cccc(-c3c(C)n[nH]c3C)c2)C(OC(C)=O)C1OC(C)=O` (stereo unspecified) came in with a melting point of 195 °C.
For `CCc1nn(C2CCC2)c2cc(C(=O)O)ccc12`, the melting point fell in the range of 148 to 150 °C.
Regarding `N#Cc1ccc(C2C(=O)N(CC3CC3)Cc3cncn32)cc1` (stereo unspecified), the melting point was 146 to 147 °C.
Turning to `O=C(NC1CN2CCC1CC2)c1cccc2nc(-c3ccc(Cl)cc3)oc12` (stereo unspecified), the melting point fell in the range of 181 to 183 °C.
To `COc1cccc2c1C13CCN(CC4CC4)C(C2)C1(O)CCC(=O)C3` (stereo unspecified) belongs 133 to 135 °C; to `COC(NC(=O)c1ccccc1O)C(Cl)(Cl)Cl` (stereo unspecified), 117 to 118 °C; to `COc1ccccc1N1CCN(CC(O)COc2cccc3c2CCCC3=O)CC1` (stereo unspecified), 120 °C.
As for `CCSc1ccc2cccc(CCNC(C)=O)c2c1`, the figure is 65 to 66 °C; as for `COc1ccc(C2(C#Cc3cccc(-c4nnc(C)o4)c3)CCC(=O)CC2)cc1OC1CCCC1`, 139 to 141 °C.
As for `CCOc1ccc(F)cc1C(=O)c1sc2nc(C)c(C)cc2c1N`, the melting point was 170 °C.
Turning to `O=C1C(=O)N(CCCCN2CCN(C(c3ccccc3)c3ccccc3)CC2)c2ccc(F)cc21`, the melting point worked out at 144 °C.
`CN1C(=O)CC[C@]2(C)c3ccc(-c4ccc(Cl)cc4)cc3CC[C@@H]12` gave a melting point of 192 °C.
As to `N#Cc1cccc(S)c1`, the melting point is 91 to 95 °C.
As for `CCCc1c(OCCCCCCc2cccc(O)c2O)ccc(C(=O)O)c1OC(C)=O`, the figure is 130 to 132 °C; as for `Cc1cc2n(C)c(=O)c3cnccc3n2n1`, above 300 °C; as for `CC(C)N(C[C@H](O)[C@H](Cc1ccccc1)NC(=O)[C@H](CC(N)=O)NCc1ccccn1)NC(=O)OC(C)(C)C`, 101 to 108 °C.
For the compound `CC(C)(C)OC(=O)NCCc1ccc(N)cc1`, the melting point lay in the range of 71 to 73 °C.
Regarding `CC(C)C=Cc1c(C(C)C)nc(C(C)C)c(CO)c1-c1ccc(F)cc1`, the melting point amounted to 112 °C.
To `CN(Cc1ccccc1)Cc1c(-c2ccc(NC(=O)NO)cc2)sc2c1c(=O)n(-c1ccccc1)c(=O)n2Cc1c(F)cccc1F` belongs 164 to 165 °C; to `COc1ccc(Oc2ccccc2Cl)cc1C=O`, 65 to 66 °C; to `O=C1CC(c2ccccc2Cl)=Nc2c1cccc2C(=O)OCCO`, 170 to 171 °C.
The compound `COC(=O)C=Cc1ccc(N2CCN(CCC3CCN(C(=O)OC(C)(C)C)CC3)C2=O)cc1` registered a melting point of 148 to 149 °C.
Regarding `COc1ccc2ccc(NC(=O)c3c[nH]c4c3C(=O)CCC4)nc2n1`, the melting point is 173 to 181 °C.
As for `CC(C)(Cl)C(=O)c1ccc(C(Br)c2ccc(C(=O)C(C)(C)Cl)cc2)cc1`, the figure is 93 °C; as for `C[C@@H](NC(=O)c1nc(-c2ccc(Cl)cc2)ns1)[C@](O)(Cn1cncn1)c1ccc(F)cc1F`, 215 to 220 °C; as for `COC(=O)C(N)C(C)(C)SSc1ccccc1C(=O)Nc1ccc(S(N)(=O)=O)cc1` (stereo unspecified), 140 to 142 °C.
Turning to `CC1(C)CCC(C)(C)c2cc(-c3cc(-c4ccc(C(=O)O)cc4)ccc3OCC(O)CO)ccc21` (stereo unspecified), the melting point worked out at 258 °C.
`Cc1ccc(-c2ncc(-c3cccs3)s2)cc1` gave a melting point of 85.5 to 86.5 °C.
Turning to `CC1COc2c(ccc(F)c2F)N1C(=O)C=NO` (stereo unspecified), the melting point was 188 to 190 °C.
Take `NC(=NO)c1ccc(O)c(O)c1`: the melting point worked out at 193 °C.
`COc1ccc(NC(C)CC(=O)NC(=O)OC(C)(C)C)cc1` (stereo unspecified): the melting point lay in the range of 70 to 71 °C.

Source of the values: a melting point compilation (Tetko et al.; mined from patent text by program, amines drawn as free bases though some values may be those of a salt).
